Measurements from US8466176B2 (priority 2008, dated 2013).

Assay: logP(HCOOH) reported with HPLC/MS
Conditions: HCOOH (formic acid), logP(HCOOH), HPLC/MS

SMILES | chromatographic logP
CCCCCCN(C=O)c1cccc(C)[n+]1[O-] [N-hexyl-N-(6-methyl-1-oxidopyridin-2-yl)formamide] | 1.82
CCCCCCN(C=O)c1cccc(C)n1 [N-hexyl-N-(6-methylpyridin-2-yl)formamide] | 3.46
CSc1cccc(C(=NO)c2nnnn2C)c1 [N-hydroxy-1-[3-(methylsulfanyl)phenyl]-1-(1-methyl-1H-tetrazol-5-yl)methanimine] | 1.98
CCCCSC(=O)Nc1cccc(CON=C(c2ccccc2)c2nnnn2C)n1 [S-butyl {6-[({[(1-methyl-1H-tetrazol-5-yl)(phenyl)methylene]amino}oxy)methyl]pyridin-2-yl}carbamothioate] | 4.25
CN(C)c1cccc(C(=O)c2nnnn2C)c1 [[3-(dimethylamino)phenyl](1-methyl-1H-tetrazol-5-yl)methanone] | 2.21
CSc1cccc(C(=O)c2nnnn2C)c1 [[3-(methylsulfanyl)phenyl](1-methyl-1H-tetrazol-5-yl)methanone] | 2.52
OCc1cccc(C2OCCO2)n1 [[6-(1,3-dioxolan-2-yl)pyridin-2-yl]methanol] | 0.54
CSc1cccc(C(=NOCc2cccc(N(CCC3CCCCC3)C(=O)OC(C)(C)C)n2)c2nnnn2C)c1 [tert-butyl (2-cyclohexylethyl)(6-{[({[3-(methylsulfanyl)phenyl](1-methyl-1H-tetrazol-5-yl)methylene}-amino)oxy]methyl}pyridin-2-yl)carbamate] | 6.83
CC(C)(C)OC(=O)N(CCC1CCCCC1)c1cccc(CBr)n1 [tert-butyl [6-(bromomethyl)pyridin-2-yl](2-cyclohexylethyl)carbamate] | 6.79

Same assay, conditions: HPLC/MS

SMILES | chromatographic logP
COC(=O)c1nc(Br)sc1C [methyl 2-bromo-5-methyl-1,3-thiazole-4-carboxylate] | 1.84

Same assay, conditions: logP(HCOOH), HPLC/MS

SMILES | chromatographic logP
Cc1cccc(NC=O)n1 [N-(6-methylpyridin-2-yl)formamide] | 0.45
CON(C)C(=O)c1cccc(SC)c1 [N-methoxy-N-methyl-3-(methylsulfanyl)benzamide] | 1.89
CC(C)(C)OC(=O)N(CCC1CCCCC1)c1cccc(CO)n1 [tert-butyl (2-cyclohexylethyl)[6-(hydroxymethyl)pyridin-2-yl]carbamate] | 4.49
CC(C)(C)OC(=O)Nc1cccc(Br)n1 [tert-butyl (6-bromopyridin-2-yl)carbamate] | 4.11
CC(C)(C)OC(=O)Nc1cccc(C=O)n1 [tert-butyl (6-formylpyridin-2-yl)carbamate] | 2.44
CC(C)(C)OC(=O)Nc1cccc(CO)n1 [tert-butyl [6-(hydroxymethyl)pyridin-2-yl]carbamate] | 1.14

Assay: logP by HPLC on reversed phase columns, method [a], pH 2.3 with 0.1% phosphoric acid and acetonitrile
Format: physicochemical
Conditions: method [a]: pH 2.3, 0.1% phosphoric acid and acetonitrile as eluent; EEC directive 79/831 Annex V.A8, reversed phase HPLC

SMILES | log p
Cn1nnnc1C(=NOCc1cccc(-c2cccc(CON=C(c3ccccc3)c3nnnn3C)n2)n1)c1ccccc1 [Example 21] | 4.36^[a]
Cn1nnnc1C(=NOCc1cccc(C#CC(C)(C)C)n1)c1ccccc1 [Example 22] | 4.19^[a]
Cn1nnnc1C(=NOCc1cccc(C#Cc2ccccc2)n1)c1ccccc1 [Example 25] | 4.04^[a]
Cn1nnnc1C(=NOCc1cccc(C#CC[Si](C)(C)C)n1)c1ccccc1 [Example 26] | 4.61^[a]
CCCC#Cc1cccc(CON=C(c2ccccc2)c2nnnn2C)n1 [Example 27] | 3.83^[a]
CC(C)[Si](C#Cc1cccc(CON=C(c2ccccc2)c2nnnn2C)n1)(C(C)C)C(C)C [Example 28] | 6.83^[a]
Cn1nnnc1C(=NOCc1cccc(C#CC2CCCC2)n1)c1ccccc1 [Example 29] | 4.34^[a]
Cn1nnnc1C(=NOCc1cccc(C#CC2CCCCC2)n1)c1ccccc1 [Example 30] | 4.77^[a]
COc1cccc(-c2cccc(CON=C(c3ccccc3)c3nnnn3C)n2)c1 [Example 33] | 3.89^[a]
Cn1nnnc1C(=NOCc1cccc(-c2ccc(C(F)(F)F)cc2)n1)c1ccccc1 [Example 34] | 4.62^[a]
